Measurements as given in US5461067A, “Retroviral protease inhibiting compounds” (priority 1994, dated 1995).
Where two headings read alike, the source gives them in different places.

How the values were obtained:
[1] = system: HIV-13B in MT4 cells; assay: Anti-HIV activity (inhibition of cytopathic effect of HIV) in MT4 cells; assay type: cell-based; details: Human immunodeficiency virus 1, concentration giving 50% inhibition of cytopathic effect of HIV
From the text: (§1) The IC50 is the concentration of compound that gives 50% inhibition of the cytopathic effect of HIV. The LC50 is the concentration of compound at which 50% of the cells remain viable.

[2] = Cytotoxicity in MT4 cells; assay type: cell-based; details: human, concentration at which 50% of the cells remain viable, read-out: LC50 (the source's name)
From the text: as §1

[3] = molecular target: HIV-1 protease (Human immunodeficiency virus type 1 group M subtype B, UniProt P04585); assay: Fluorogenic assay for screening inhibitors of HIV protease
[4] = pH 4.5, read-out: Percent Inhibition

IC50 [3] | inhibition at 0.0005 µM [3, 4] | SMILES | IC50 [1] | CC50 [2] | other results
3.9 nM |  | CC(C)(C)OC(=O)NN(Cc1ccccc1)C[C@H](O)[C@H](Cc1ccccc1)NC(=O)OCc1cccnc1 [Example 4B, 5S-((3-Pyridinyl)methoxycarbonyl)amino-2-t-butyloxycarbonylamino-4S-hydroxy-1,6-diphenyl-2-azahexane] |  |  | inhibition at 0.0039 µM [3, 4]: 50%
 | 73% | CC(C)c1nc(CN(C)C(=O)N[C@H](C(=O)NN(Cc2ccccc2)C[C@H](O)[C@H](Cc2ccccc2)NC(=O)OCc2ccccc2)C(C)C)cs1 [Example 6H, 5S-(Benzyloxycarbonyl)amino-2-N-(((N-methyl-N-((2-isopropyl-4-thiazolyl)methyl)amino)carbonyl)-L-valinyl)amino-4S-hydroxy-1,6-diphenyl-2-azahexane] |  |  | 
10 nM |  | COc1ccc(CN(C[C@H](O)[C@H](Cc2ccccc2)NC(=O)OCc2ccccc2)NC(=O)OC(C)(C)C)cc1 [Example 14B, 5S-N-(Benzyloxycarbonyl)amino-2-N-(t-butyloxycarbonyl)amino-4S-hydroxy-1-p-methoxyphenyl-6-phenyl-2-azahexane] |  |  | inhibition at 0.01 µM [3, 4]: 50%
 |  | COc1cccc(CN(C[C@H](O)[C@H](Cc2ccccc2)NC(=O)OCc2ccccc2)NC(=O)OC(C)(C)C)c1 [Example 17B] |  |  | inhibition at 0.012 µM [3, 4]: 50%; IC50 ([3]; read-out: Inhibitor Concentration (at 50 Percent Inhibition), concentration printed with 50 percent inhibition, pH 4.5, 30° C.): 12 nM
2.1 nM |  | CC(C)(C)OC(=O)NN(Cc1ccoc1)C[C@H](O)[C@H](Cc1ccccc1)NC(=O)OCc1cncs1 [Example 47] |  |  | inhibition at 0.0021 µM [3, 4]: 50%
 | 66% | CC(C)c1nc(CN(C)C(=O)N[C@H](C(=O)NN(Cc2ccoc2)C[C@H](O)[C@H](Cc2ccccc2)NC(=O)OCc2cncs2)C(C)C)cs1 [Example 48, 5S-(((5-Thiazolyl)methoxy)carbonyl)amino-2-N-(((N-methyl-N-( (2-isopropyl-4-thiazolyl)methyl)amino)carbonyl)-L-valinyl)amino-4S-hydroxy-1-(3-furanyl)-6-phenyl-2-azahexane] | 88 to 114 nM |  | 
 | 75% | CC(C)c1nc(COC(=O)N[C@H](C(=O)NN(Cc2ccoc2)C[C@H](O)[C@H](Cc2ccccc2)NC(=O)OCc2cncs2)C(C)C)co1 [Example 49E, 5S-(((5-Thiazolyl)methoxy)carbonyl)amino-2-((N-2-isopropyl-4-oxazolyl)methoxycarbonyl)amino-4S-hydroxy-1-(3-furanyl)-6-phenyl-2-azahexane] | 29 to 32 nM |  | 
 | 73% | CC(C)c1nc(COC(=O)N[C@H](C(=O)NN(Cc2ccccc2)C[C@H](O)[C@H](Cc2ccccc2)NC(=O)OCc2cncs2)C(C)C)co1 [Example 50, 5 S-(((5-Thiazolyl)methoxy)carbonyl)amino-2-((N-2-isopropyl-4-oxazolyl)methoxycarbonyl)amino-4S-hydroxy-1,6-diphenyl-2-azahexane] | 16 to 31 nM |  | 
0.5 nM | 50% | CC(C)c1nc(COC(=O)N[C@H](C(=O)N[C@@H](Cc2ccccc2)[C@@H](O)CN(Cc2ccc(F)cc2)NC(=O)OC(C)(C)C)C(C)C)co1 [Example 51D] | 209 to 274 nM |  | 
7.5 nM |  | CC(C)(C)OC(=O)NN(Cc1ccc(O)cc1)C[C@H](O)[C@H](Cc1ccccc1)NC(=O)OCc1ccccc1 [Example 52, 5S-(Benzyloxycarbonyl)amino-2-(t-butyloxycarbonyl)amino-4S-hydroxy-1-(4-hydroxyphenyl)-6-phenyl-2-azahexane] |  |  | inhibition at 0.0075 µM [3, 4]: 50%
 | 57% | CC(C)c1nc(COC(=O)N[C@H](C(=O)N[C@@H](Cc2ccccc2)[C@@H](O)CN(Cc2ccc(O)cc2)NC(=O)OC(C)(C)C)C(C)C)co1 [Example 53, 5S-(((2-Isopropyl-4-oxazolyl)methoxycarbonyl)-valinyl)amino-2-(t-butyloxycarbonyl)amino-4S-hydroxy-1-(4-hydroxyphenyl)-6-phenyl-2-azahexane] | 55 nM |  | 
 | 56% | CC(C)c1nc(CN(C)C(=O)N[C@H](C(=O)NN(Cc2ccc(O)cc2)C[C@H](O)[C@H](Cc2ccccc2)NC(=O)OCc2cncs2)C(C)C)cs1 [Example 54B] | 37 to 67 nM |  | 
7.4 nM |  | CC(C)(C)OC(=O)NN(Cc1cccc(O)c1)C[C@H](O)[C@H](Cc1ccccc1)NC(=O)OCc1ccccc1 [Example 55C, 5S-(Benzyloxycarbonyl)amino-2-(t-butyloxycarbonyl)amino-4S-hydroxy-1-(3-hydroxyphenyl)-6-phenyl-2-azahexane] |  |  | inhibition at 0.0074 µM [3, 4]: 50%
 | 49% | CC(C)c1nc(CN(C)C(=O)N[C@H](C(=O)NN(Cc2cccc(O)c2)C[C@H](O)[C@H](Cc2ccccc2)NC(=O)OCc2cncs2)C(C)C)cs1 [Example 56B, 5S-(((5-Thiazolyl)methoxy)carbonyl)amino-2-N-((((N-methyl-N-2-isopropyl-4-thiazolyl)methyl)amino)carbonyl)-L-valinylamino-4S-hydroxy-1-(3-hydroxyphenyl)-6-phenyl-2-azahexane] |  |  | 
9.9 nM |  | CC(C)(C)OC(=O)NN(Cc1ccc(OCCN2CCOCC2)cc1)C[C@H](O)[C@H](Cc1ccccc1)NC(=O)OCc1ccccc1 [Example 57C, 2-(t-Butyloxycarbonyl)amino-5S-(benzyloxycarbonyl)amino-4S-hydroxy-1-(4-((2-morpholinyl)ethoxy)phenyl)-6-phenyl-2-azahexane] |  |  | inhibition at 0.0099 µM [3, 4]: 50%
18 nM |  | CC(C)(C)OC(=O)NN(Cc1ccc(-c2ccccc2)cc1)C[C@H](O)[C@H](Cc1ccccc1)NC(=O)OCc1ccccc1 [Example 58, 2-(t-Butyloxycarbonyl)amino-5S-(benzyloxycarbonyl)amino-4S-hydroxy-1-(4-biphenyl)-6-phenyl-2-azahexane] |  |  | inhibition at 0.018 µM [3, 4]: 50%

SMILES | IC50 [3] | inhibition at 0.0005 µM [3, 4] | IC50 [1] | CC50 [2] | other results
CC(C)(C)OC(=O)NN(Cc1ccccc1)C[C@H](O)[C@H](Cc1ccccc1)NC(=O)OCc1ccccc1 [Example 1F, 2-(t-Butyloxycarbonyl)amino-4S-hydroxy-5S-(benzyloxycarbonyl)amino-1,6-diphenyl-2-azahexane] | 5.1 nM |  | 36000 nM | > 100000 nM | inhibition at 0.0051 µM [3, 4]: 50%
CC(C)[C@H](NC(=O)OCc1ccccn1)C(=O)N[C@@H](Cc1ccccc1)[C@@H](O)CN(Cc1ccccc1)NC(=O)OC(C)(C)C [Example 2E, 5S-N-((2-Pyridinyl)methoxycarbonyl)valinylamino-2-t-butyloxycarbonylamino-4S-hydroxy-1,6-diphenyl-2-azahexane] | 0.5 nM | 50% | 780 to 1230 nM | 56000 nM | 
CC(C)[C@H](NC(=O)OCc1ccccn1)C(=O)N[C@@H](Cc1ccccc1)[C@@H](O)CN(Cc1ccccc1)NC(=O)OCc1cccnc1 [Example 5B, 5S-N-((2-Pyridinyl)methoxycarbonyl)valinylamino-2-((N-3-pyridinyl)methoxycarbonyl)amino-4S-hydroxy-1,6-diphenyl-2-azahexane] |  | 60% | 150 to 260 nM | > 100000 nM | 
CC(C)(C)OC(=O)NN(Cc1ccccc1)C[C@H](O)[C@H](Cc1ccccc1)NC(=O)OCc1cncs1 [Example 7F, 5S-(((5-Thiazolyl)methoxy)carbonyl)amino-2-(t-butyloxycarbonyl)amino-4S-hydroxy-1,6-diphenyl-2-azahexane] | 4.4 nM |  | 6500 to 18200 nM | 44000 nM | inhibition at 0.0044 µM [3, 4]: 50%
CC(C)c1nc(CN(C)C(=O)N[C@H](C(=O)NN(Cc2ccccc2)C[C@H](O)[C@H](Cc2ccccc2)NC(=O)OCc2cncs2)C(C)C)cs1 [Example 8, 5S-(((5-Thiazolyl)methoxy)carbonyl)amino-2-N-((N-methyl-N-((2-isopropyl-4-thiazolyl)methyl)amino)carbonyl)-L-valinylamino-4S-hydroxy-1,6-diphenyl-2-azahexane] |  | 77% | 100 to 110 nM | 17000 nM | 
CC(C)c1nc(CN(C)C(=O)N[C@H](C(=O)N[C@@H](Cc2ccccc2)[C@@H](O)CN(Cc2ccccc2)NC(=O)OC(C)(C)C)C(C)C)co1 [Example 9F, 5S-N-((N-Methyl-N-((2-isopropyl-4-oxazolyl)methyl)amino)carbonyl)-L-valinylamino-2-N-(t-butyloxycarbonyl)amino-4S-hydroxy-1,6-diphenyl-2-azahexane] |  | 61% | 460 to 1000 nM | 19000 nM | 
CCc1cccc(CN(C)C(=O)N[C@H](C(=O)NN(Cc2ccccc2)C[C@H](O)[C@H](Cc2ccccc2)NC(=O)OCc2ccccc2)C(C)C)n1 [Example 10, 5S-(Benzyloxycarbonyl)amino-2-N-((N-methyl-N-((6-ethyl-2-pyridinyl)methyl)amino)carbonyl)-L-valinylamino-4S-hydroxy-1,6-diphenyl-2-azahexane] | 0.5 nM | 50% | 830 to 1100 nM | 19000 nM | 
CC(C)c1nc(CN(C)C(=O)N[C@H](C(=O)NN(Cc2ccccc2)C[C@H](O)[C@H](Cc2ccccc2)NC(=O)OCc2ccccc2)C(C)C)co1 [Example 11, 5S-(Benzyloxycarbonyl)amino-2-N-((N-methyl-N-((2-isopropyl-4-oxazolyl)methyl)amino)carbonyl)-L-valinylamino-4S-hydroxy-1,6-diphenyl-2-azahexane] |  | 69% | 230 nM | 18000 nM | 
CC(C)c1nc(CN(C)C(=O)N[C@H](C(=O)NN(Cc2ccccc2)C[C@H](O)[C@H](Cc2ccccc2)NC(=O)OCc2cncs2)C(C)C)co1 [Example 12, 5S-((5-Thiazolyl)methoxy)Carbonylamino-2-N-((N-methyl-N-((2-isopropyl-4-oxazolyl)methyl)amino)carbonyl)-L-valinylamino-4S-hydroxy-1,6-diphenyl-2-azahexane] |  | 78% | 100 to 105 nM | 53000 nM | 
